Assay [1] relates to E. hirae ATCC 8043. As to the kind of experiment: Antimicrobial activity, MIC. It counts as cell-based. The procedure: (§1) Each fullerene derivative or the like was dissolved in DMSO, then added to the culture medium of bacteria. Vancomycin is an antimicrobial agent used for drug resistant bacteria (Methicillin resistant strains, MRSA) which has been in trouble now. […] Among the regioisomers of the compound 2, 2t-2, 2t-3 and 2t-4, differences in the effects are observed in some degree depending on bacteria, however, there are no significant differences, and they have an antimicrobial activity substantially equivalent to that of vancomycin, and are also effective for MRSA. Furthermore, worthy of special mention is the fact that these fullerene derivatives and the like show an effective antimicrobial activity against also vancomycin-resistant bacteria (VRE). […] At present, vancomycin-resistant bacteria began to emerge, therefore, the compound 2 is expected to exert an effect on these.

Assay [2] deals with S. aureus 209P JC-1. Put plainly: Antimicrobial activity, MIC. The assay is classed as cell-based. The procedure:
as §1

Assay [3] relates to S. aureus M126 (MRSA). As to the kind of experiment: Antimicrobial activity, MIC. The assay is classed as cell-based. Here is the method: as §1
The subject of assay [4] is S. aureus M133 (MRSA). As to the kind of experiment: Antimicrobial activity, MIC. The assay is classed as cell-based. The procedure:
as §1

The subject of assay [5] is S. eidermidis ATCC 14990. As to the kind of experiment: Antimicrobial activity, MIC. The assay is classed as cell-based. The procedure: as §1
Assay [6] concerns the target T1, RNA polymerase of hepatitis C virus (Hepatitis C virus genotype 1a, UniProt P27958).
T1 construct: measuring RNA polymerase activity of hepatitis C virus
As to the kind of experiment: RNA polymerase activity of hepatitis C virus, inhibitory activity. The assay is classed as biochemical. The source says: (1) By using an experimental system for measuring RNA polymerase activity of hepatitis C virus (D. Dhanak et al., J. Biol. Chem., 277, 38322-[…] (2002)), its inhibitory activity was examined.
With regard to the foregoing compound 2, major regioisomers were separated and purified, however, with regard to others, bioactivities were investigated using mixtures.

Assay [7] deals with HIV reverse transcriptase (Human immunodeficiency virus type 1 group M subtype B, UniProt P03366). Put plainly: HIV reverse transcriptase inhibitory activity (32P-dTTP incorporation). The assay is classed as biochemical. The conditions noted are these: 1 hour at 37° C., pH 8.3. The procedure:
The experiment was performed as follows in 50 mM Tris-HCl buffer (pH 8.3); to 10 μL of a reaction solution which had been prepared so as to contain 30 mM NaCl, 10 mM MgCl, 2.5 mM DTT, 1.25 μg/mL poly(rA). oligo(dT) 12-18, 250 nM dTTP, ^32P-dTTP (800 μCi/mmol), 1 μl of a sample dissolved in DMSO, 1 μl of HIV reverse transcriptase (0.01 U/mL) were added, and the total volume was made up to 20 μl. After the solution was incubated for 1 hour at 37° C., 10 μl of the reaction solution was placed on a Whatman DE81 filter, which was washed three times with Na2HPO4, once with 70% ethanol and once with ethanol. The dried filter was placed in a vial, and the radioactivity was counted by the liquid scintillation measurement method, which was assigned to the HIV reverse transcriptase activity.

The subject of assay [8] is E. faecalis NCTC 12201 (VRE). Put plainly: Antimicrobial activity, MIC. It counts as cell-based. The procedure:
as §1

Assay [9] concerns E. faecalis W-73. As to the kind of experiment: Antimicrobial activity, MIC. It counts as cell-based. Here is the method: as §1
Assay [10] relates to E. faecium vanA (VRE). Put plainly: Antimicrobial activity, MIC. The assay is classed as cell-based. Here is the method:
as §1

In brackets after ≈: the same amount, converted by molar mass. Like-named read-outs stand apart in the source and are kept apart here.

T1 sequence (P27958 2421-3011): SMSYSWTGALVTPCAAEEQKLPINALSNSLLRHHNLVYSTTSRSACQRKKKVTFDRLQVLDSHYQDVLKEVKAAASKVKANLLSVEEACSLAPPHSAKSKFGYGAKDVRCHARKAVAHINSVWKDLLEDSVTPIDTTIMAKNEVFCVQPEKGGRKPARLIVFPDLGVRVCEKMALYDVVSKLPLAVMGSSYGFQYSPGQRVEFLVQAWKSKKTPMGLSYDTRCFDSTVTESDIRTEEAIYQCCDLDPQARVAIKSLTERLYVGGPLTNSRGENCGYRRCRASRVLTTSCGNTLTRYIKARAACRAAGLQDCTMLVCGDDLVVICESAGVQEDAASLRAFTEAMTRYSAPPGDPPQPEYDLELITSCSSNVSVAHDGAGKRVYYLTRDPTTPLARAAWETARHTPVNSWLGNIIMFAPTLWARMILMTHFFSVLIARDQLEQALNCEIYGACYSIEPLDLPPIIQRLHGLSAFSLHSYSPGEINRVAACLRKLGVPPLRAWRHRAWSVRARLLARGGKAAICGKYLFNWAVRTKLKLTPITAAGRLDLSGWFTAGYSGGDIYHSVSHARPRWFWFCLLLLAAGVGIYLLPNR

As for `CN[C@H](CC(C)C)C(=O)N[C@H]1C(=O)N[C@@H](CC(N)=O)C(=O)N[C@H]2C(=O)N[C@H]3C(=O)N[C@H](C(=O)N[C@H](C(=O)O)c4cc(O)cc(O)c4-c4cc3ccc4O)[C@H](O)c3ccc(c(Cl)c3)Oc3cc2cc(c3O[C@@H]2O[C@H](CO)[C@@H](O)[C@H](O)[C@H]2O[C@H]2C[C@](C)(N)[C@H](O)[C@H](C)O2)Oc2ccc(cc2Cl)[C@H]1O` [VCM, vancomycin, reference compound], the MIC in [1] (Enterococcus hirae, ATCC8043) was found to be 3120 µg/mL (≈ 2150 µM); in assay [2] (Staphylococcus aureus, 209P), 1560 µg/mL (≈ 1080 µM); in assay [3] (Staphylococcus aureus, MRSA) it was 1560 µg/mL (≈ 1080 µM); in assay [4] (Staphylococcus aureus, MRSA), 1560 µg/mL (≈ 1080 µM); in [5], 3120 µg/mL (≈ 2150 µM).

Consider `O=C(O)CN1C(C(=O)O)C23c4c5c6c7c8c9c(c%10c%11c2c2c4c4c%12c5c5c6c6c8c8c%13c9c9c%10c%10c%11c%11c2c2c4c4c%12c%12c5c5c6c8c6c8c%13c9c9c%10c%10c%11c2c2c4c4c%12c5c6c5c8c9c%10c2c45)C73C1C(=O)O` (stereo not shown) [compound 8], for which the IC50 stood at 2000 nM in assay [6] and 29 nM in [7].

In assay [7], `C[N+]1(C)CC23c4c5c6c7c8c9c(c%10c%11c2c2c4c4c%12c5c5c6c6c8c8c%13c9c9c%10c%10c%11c%11c2c2c4c4c%12c%12c5c5c6c8c6c8c%13c9c9c%10c%10c%11c2c2c4c4c%12c5c6c5c8c9c%10c2c45)C73C1` (stereo not shown) [compound 9] returned an IC50 of 1600 nM.

Compound `O=C(O)CN1CC23c4c5c6c7c8c9c(c%10c%11c2c2c4c4c%12c5c5c6c6c8c8c%13c9c9c%10c%10c%11c%11c2c2c4c4c%12c%12c5c5c6c8c6c8c%13c9c9c%10c%10c%11c2c2c4c4c%12c5c6c5c8c9c%10c2c45)C73C1C(=O)O` (stereo not shown) [compound 10] gave an IC50 in assay [7] of 1000 nM.

In assay [7], `CN1CC23c4c5c6c7c8c9c(c%10c%11c2c2c4c4c%12c5c5c6c6c8c8c%13c9c9c%10c%10c%11c%11c2c2c4c4c%12c%12c5c5c6c8c6c8c%13c9c9c%10c%10c%11c2c2c4c4c%12c5c6c5c8c9c%10c2c45)C73C1c1ccc[n+](C)c1` (stereo not shown) [compound 12] yielded an IC50 of 5200 nM.

In the case of “C60-bis(N,N-dimethyl-2-hexylpyyrolidinium iodido) [compound 4]”, in [7], the IC50 came to 800 nM. Also, the MIC in assay [8] is 25000 µg/mL; in [9], 50000 µg/mL; in assay [10], 12500 µg/mL; in [1] (E. hirae ATCC 8043), 25000 µg/mL; in [2] (S. aureus 209P JC-1), 6250 µg/mL; in [3] (S. aureus M126 (MRSA)), 12500 µg/mL. Also, the MIC in [4] (S. aureus M133 (MRSA)) and in [5] (S. eidermidis ATCC 14990) was 12500 µg/mL each time.

These data come from patent US8344017B2, “Anti-hepatitis C virus agents and anti-HIV agents” (Mitsubishi Corporation, priority 2003, dated 2013).
